PubChem BioAssay AID330 (DTP/NCI, 2004)
Several values for one entry are separate records, joined by “and”; a condition that tells them apart may be missing. Identical values can stand only once. Inconclusive results and toxic doses are left out. The calls were made as follows: active = survival T/C of 150% or more; inactive = T/C below 125% in these data.

System: P388 leukemia ip, CD2F1 mice, survival T/C
Assay: NCI In Vivo Anticancer Drug Screen. Data for tumor model P388 Leukemia (intraperitoneal) in CD2F1 (CDF1) mice
Settings: endpoint: median survival time, higher = longer survival
Procedure, shortened: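 Mice carrying the transplanted tumor received test compound or vehicle. Survival was recorded in each group, and the value is the treated-group measurement divided by that of the vehicle-treated control group.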

[1] = dose: 50.0 mg/kg/injection, schedule: Q01DX009 (ip), vehicle: saline
[2] = dose: 100.0 mg/kg/injection, schedule: Q01DX009 (ip), vehicle: saline
[3] = dose: 100.0 mg/kg/injection, schedule: Q04DX002 (ip), vehicle: saline with Tween-80
[4] = dose: 200.0 mg/kg/injection, schedule: Q01DX009 (ip), vehicle: saline
[5] = dose: 200.0 mg/kg/injection, schedule: Q04DX002 (ip), vehicle: saline with Tween-80
[6] = dose: 400.0 mg/kg/injection, schedule: Q04DX002 (ip), vehicle: saline with Tween-80
[7] = dose: 100.0 mg/kg/injection, schedule: Q01DX009 (ip), vehicle: saline with Tween-80
[8] = dose: 200.0 mg/kg/injection, schedule: Q01DX009 (ip), vehicle: saline with Tween-80
[9] = dose: 400.0 mg/kg/injection, schedule: Q01DX009 (ip), vehicle: saline with Tween-80
[10] = dose: 50.0 mg/kg/injection, schedule: Q01DX005 (ip), vehicle: Klucel (hydroxypropylcellulose) (HPC)
[11] = dose: 100.0 mg/kg/injection, schedule: Q01DX005 (ip), vehicle: Klucel (hydroxypropylcellulose) (HPC)
[12] = dose: 200.0 mg/kg/injection, schedule: Q01DX005 (ip), vehicle: Klucel (hydroxypropylcellulose) (HPC)
[13] = dose: 60.0 mg/kg/injection, schedule: Q01DX005 (ip), vehicle: Klucel (hydroxypropylcellulose) (HPC)
[14] = dose: 120.0 mg/kg/injection, schedule: Q01DX005 (ip), vehicle: Klucel (hydroxypropylcellulose) (HPC)
[15] = dose: 240.0 mg/kg/injection, schedule: Q01DX005 (ip), vehicle: Klucel (hydroxypropylcellulose) (HPC)
[16] = dose: 50.0 mg/kg/injection, schedule: Q01DX005 (ip), vehicle: saline
[17] = dose: 100.0 mg/kg/injection, schedule: Q01DX005 (ip), vehicle: saline
[18] = dose: 200.0 mg/kg/injection, schedule: Q01DX005 (ip), vehicle: saline
[19] = dose: 60.0 mg/kg/injection, schedule: Q01DX005 (ip), vehicle: saline
[20] = dose: 120.0 mg/kg/injection, schedule: Q01DX005 (ip), vehicle: saline
[21] = dose: 240.0 mg/kg/injection, schedule: Q01DX005 (ip), vehicle: saline
[22] = dose: 25.0 mg/kg/injection, schedule: Q01DX005 (ip), vehicle: Klucel (hydroxypropylcellulose) (HPC)

Measured: T/C

CC(S)C(N)C(=O)O (stereo not given)
inactive: [1] 100 % of control | [2] 95 % of control | [3] 105 % of control and 94 % of control | [4] 97 % of control | [5] 114 % of control and 90 % of control | [6] 114 % of control and 89 % of control

Cc1cc(O)c(N=Nc2ccc(C(=O)O)cc2)cc1C
inactive: [7] 100 % of control | dose: 100.0 mg/kg/injection, schedule: Q04DX003 (ip), vehicle: saline with Tween-80 90 % of control | [8] 95 % of control | [9] 95 % of control | dose: 400.0 mg/kg/injection, schedule: Q04DX003 (ip), vehicle: saline with Tween-80 90 % of control

CC(N)C(=O)NC(C)C(=O)NC(C)C(=O)O (stereo not given)
inactive: [10] 104 % of control | [11] 106 % of control | [12] 101 % of control

c1coc(-c2cc(-c3cc(-c4ccco4)on3)no2)c1
inactive: [13] 105 % of control | [14] 100 % of control | [15] 107 % of control

C/C=C(\C)C(=O)OC1C(C)=C2C(C1OC(=O)CCCCC)C(C)(OC(C)=O)CC(OC(=O)CCC)C1(O)C2OC(=O)C1(C)O (stereo not given)
inactive: dose: 0.25 mg/kg/injection, schedule: Q01DX005 (ip), vehicle: Klucel (hydroxypropylcellulose) (HPC) 105 % of control | dose: 0.5 mg/kg/injection, schedule: Q01DX005 (ip), vehicle: Klucel (hydroxypropylcellulose) (HPC) 99 % of control and 123 % of control | dose: 1.0 mg/kg/injection, schedule: Q01DX005 (ip), vehicle: Klucel (hydroxypropylcellulose) (HPC) 105 % of control | dose: 2.0 mg/kg/injection, schedule: Q01DX005 (ip), vehicle: Klucel (hydroxypropylcellulose) (HPC) 106 % of control

C=C1ON(C)C(c2ccccc2)C1S(=O)(=O)c1ccccc1 (stereo not given)
inactive: [13] 110 % of control | [14] 105 % of control | [15] 98 % of control

O=C1CC(c2ccc([N+](=O)[O-])cc2)O1 (stereo not given)
inactive: dose: 100.0 mg/kg/injection, schedule: Q01DX001 (ip), vehicle: saline 101 % of control | dose: 200.0 mg/kg/injection, schedule: Q01DX001 (ip), vehicle: saline 104 % of control | dose: 400.0 mg/kg/injection, schedule: Q01DX001 (ip), vehicle: saline 102 % of control

COc1ccc(N2CSC(=S)N(c3ccc(OC)cc3)C2)cc1
inactive: [9] 86 % of control

COc1cccc2c1CCC1=CC(=O)CCC12C (stereo not given)
inactive: [10] 102 % of control | [11] 96 % of control | [12] 93 % of control

CC(O)C(=O)NC1CCCCC1 (stereo not given)
inactive: [16] 98 % of control | [17] 88 % of control | [18] 89 % of control

O=CN(CC(=O)O)CC(=O)O
inactive: [16] 100 % of control | [17] 100 % of control | [18] 102 % of control

O=C(O)c1ccnc2c1ccc1ccccc12
inactive: dose: 100.0 mg/kg/injection, schedule: Q04DX002 (ip), vehicle: Klucel (hydroxypropylcellulose) (HPC) 103 % of control | dose: 200.0 mg/kg/injection, schedule: Q04DX002 (ip), vehicle: Klucel (hydroxypropylcellulose) (HPC) 94 % of control

COc1ccc(CCN2C=CC(C#N)C(C(C)=O)=C2)cc1OC (stereo not given)
inactive: [10] 99 % of control | [11] 94 % of control | [12] 90 % of control

NC(CCl)C(=O)NO (stereo not given)
inactive: [1] 99 % of control | [2] 96 % of control | [4] 103 % of control

CCC1=C(C)CCN(C)C1Cc1ccc(OC)cc1 (stereo not given)
inactive: dose: 15.0 mg/kg/injection, schedule: Q01DX005 (ip), vehicle: Klucel (hydroxypropylcellulose) (HPC) 106 % of control | dose: 30.0 mg/kg/injection, schedule: Q01DX005 (ip), vehicle: Klucel (hydroxypropylcellulose) (HPC) 98 % of control | [13] 100 % of control and 102 % of control

O=C1c2ccccc2C(=O)N1Cc1ccccc1Br
inactive: [10] 103 % of control | [11] 101 % of control | [12] 100 % of control

CCC(=O)Nc1c(O)c(Br)c(NC(=O)CC)c(O)c1Br
inactive: [19] 104 % of control | [20] 100 % of control | [21] 105 % of control

CCOC(=O)/C(NC(=O)c1ccccc1)=C(\NC(=O)c1ccccc1)C(=O)OCC
inactive: [19] 104 % of control | [20] 96 % of control | [21] 96 % of control

Nc1cccc(S(=O)(=O)N/N=C/C(=O)O)c1
inactive: dose: 12.5 mg/kg/injection, schedule: Q01DX009 (ip), vehicle: water 111 % of control | dose: 25.0 mg/kg/injection, schedule: Q01DX009 (ip), vehicle: water 116 % of control | dose: 50.0 mg/kg/injection, schedule: Q01DX009 (ip), vehicle: water 119 % of control | dose: 100.0 mg/kg/injection, schedule: Q01DX009 (ip), vehicle: water 117 % of control

Cc1cccc(N=C(C2=C(O)c3ccccc3C2=O)c2ccccc2)c1
inactive: dose: 25.0 mg/kg/injection, schedule: Q04DX002 (ip), vehicle: saline with Tween-80 100 % of control | dose: 50.0 mg/kg/injection, schedule: Q04DX002 (ip), vehicle: saline with Tween-80 97 % of control | [3] 98 % of control | [5] 92 % of control | [6] 97 % of control

O=S(=O)(OCCCl)c1c(F)c(F)c(F)c(F)c1F
inactive: dose: 3.12 mg/kg/injection, schedule: Q01DX009 (ip), vehicle: saline with Tween-80 103 % of control | dose: 6.25 mg/kg/injection, schedule: Q01DX009 (ip), vehicle: saline with Tween-80 109 % of control | dose: 12.5 mg/kg/injection, schedule: Q01DX009 (ip), vehicle: saline with Tween-80 110 % of control

O=[N+]([O-])c1cnc(Sc2ncccn2)c([N+](=O)[O-])c1
inactive: dose: 3.12 mg/kg/injection, schedule: Q01DX009 (ip), vehicle: saline 96 % of control | dose: 3.12 mg/kg/injection, schedule: Q01DX009 (ip), vehicle: suspension in saline 107 % of control | dose: 6.25 mg/kg/injection, schedule: Q01DX009 (ip), vehicle: saline 96 % of control | dose: 6.25 mg/kg/injection, schedule: Q01DX009 (ip), vehicle: suspension in saline 104 % of control | dose: 12.5 mg/kg/injection, schedule: Q01DX009 (ip), vehicle: saline 99 % of control | dose: 12.5 mg/kg/injection, schedule: Q01DX009 (ip), vehicle: suspension in saline 98 % of control and 108 % of control | dose: 25.0 mg/kg/injection, schedule: Q01DX009 (ip), vehicle: suspension in saline 105 % of control | dose: 50.0 mg/kg/injection, schedule: Q01DX009 (ip), vehicle: suspension in saline 99 % of control and 107 % of control

c1ccc2c(c1)oc1cc3c(cc12)nnc1cccn13
inactive: [22] 100 % of control | [10] 96 % of control | [11] 92 % of control | [12] 86 % of control

S=C(NNc1nnc(-c2ccccc2)c(-c2ccccc2)n1)Nc1ccc(Br)cc1
inactive: dose: 12.5 mg/kg/injection, schedule: Q01DX005 (ip), vehicle: saline with Tween-80 97 % of control | dose: 25.0 mg/kg/injection, schedule: Q01DX005 (ip), vehicle: saline with Tween-80 90 % of control | dose: 50.0 mg/kg/injection, schedule: Q01DX005 (ip), vehicle: saline with Tween-80 97 % of control | dose: 200.0 mg/kg/injection, schedule: Q01DX005 (ip), vehicle: saline with Tween-80 93 % of control

CCNCc1nc2sc3c(c2c(=O)[nH]1)CCCC3
inactive: dose: 50.0 mg/kg/injection, schedule: Q01DX009 (ip), vehicle: saline with Tween-80 105 % of control | [7] 94 % of control | [8] 99 % of control

O=S1(=O)CC23C=CC=CC2(CCCC3)C1Cl (stereo not given)
inactive: dose: 12.5 mg/kg/injection, schedule: Q01DX005 (ip), vehicle: Klucel (hydroxypropylcellulose) (HPC) 93 % of control | [22] 89 % of control | [10] 91 % of control

CC1(C)COP(Oc2ccccc2)OC1
inactive: dose: 25.0 mg/kg/injection, schedule: Q01DX009 (ip), vehicle: saline + Tween-80 + alcohol 102 % of control | dose: 50.0 mg/kg/injection, schedule: Q01DX009 (ip), vehicle: saline + Tween-80 + alcohol 103 % of control | dose: 100.0 mg/kg/injection, schedule: Q01DX009 (ip), vehicle: saline + Tween-80 + alcohol 100 % of control | dose: 200.0 mg/kg/injection, schedule: Q01DX009 (ip), vehicle: saline + Tween-80 + alcohol 96 % of control
